# Reference: patent US9526915B2, “Methods for regulating cell mitosis by inhibiting serine/threonine phosphatase” (priority 2008, dated 2016)
# Several values for one entry are separate records, joined by “and”; a condition that tells them apart may be missing. Equal values may be shown once.
# Key:
# U87MG xenografts = assay: U87MG s.c. xenografts in SCID mice, compound 102 and TMZ; assay type: in vivo; conditions: same doses and schedules
# Method: (§1) 5×10^6 U87MG cells were inoculated s.c. into each flank of 20 SCID mice. When the xenografts were 0.5+/−0.1 cm (day 0), 5 animals each received i.p. vehicle alone days 1-12 (50% DMSO/H20); compound 102 alone at 1.5 mg/kg days 1-3, 5-7, & 9-11; TMZ alone at 80 mg/kg days 4, 8, 12; or both drugs at the same doses and schedules. If xenografts reached 1800 mm^3, animals were sacrificed. […] B, Survival curve combining the data from the study shown in FIG. 12A, with a second identical study involving a total of 10 animals with two xenografts each. Disease-free survival was defined as no recurrence of either xenografts. […] As in 12A, except that xenografts of SH-SY5Y cells were implanted in one flank only and animals were treated with one additional cycle of drugs, i.e., compound 102 on days 13-15, TMZ, on day 16, and compound 102 plus TMZ on the same schedules. […] E, Western blots of U87 cells in culture 24 hours after exposure to compound 102 at 2.5 uM, TMZ at 25 uM or DOX at 2 uM, and compound 102 plus TMZ or DOX. F, Western blots of U373 cells 24 hours after exposure to compound 102 at 2.5 uM, doxorubicin at 2 uM, and both drugs. G, Western blots of U373 cells 24 hours after exposure to TMZ at 25 uM, okadaic acid at 2 nM, and both drugs.
# To determine the impact of altering DNA-damage defense mechanisms by inhibiting PP2A on the efficacy of cytotoxic chemotherapy, the effects of compound 102 combined with TMZ, a non-specific DNA-methylating drug, routinely used for the palliative treatment of GBM patients (Prados et al, 2008), were studied. SCID mice bearing s.c. xenografts of either the GBM line U87MG or the neuroblastoma line SH-SY5Y were treated with vehicle alone, compound 102 alone, TMZ alone, or both drugs at the same doses and schedules as when given alone.
# U373 cells [1] = assay: Western blots of U373 cells; assay type: cell-based, human; conditions: U373, 2 nM, 24 hours
# Method: as §1
# U87MG cells = assay: Cellular and molecular changes in U87MG cells (Western blots, IFS); assay type: cell-based, human; conditions: U87MG, 24 hours; compound 102 2.5 uM, TMZ 25 uM, DOX 2 uM
# Method: D, Western blots of U87 lysates: TCTP, pPlk (Tre-210), total Plk, and β-actin. E, IFS of TCTP in U87 cells, F, Western blots p53 (ser-15), pMDM2 (ser-166), and β-actin and G, IFS of p53 (ser-15).
# as §1
# TCTP is an abundant, highly conserved, multifunctional protein that binds to and stabilizes microtubules before and after mitosis and also exerts potent anti-apoptotic activity (Bommer and Thiele, 2004; Yarm, 2002; Susini et al, 2008) (FIG. 11E).
# […] Akt-1 activation, however, may be anti- or proapoptotic depending on the context of cell signaling (Andrabi et al, 2007).
# The effects of compound 102, TMZ, doxorubicin (DOX), a widely used anti-cancer drug that disrupts DNA replication, compound 102 plus TMZ, and compound 102 plus DOX on the amount of pAkt, p53 and MDM2 in U87MG, a cell line with wild-type p53, and in U373, a cell line with mutant p53 (Short et al, 2007) were assessed by Western blots.
# U373 cells [2] = assay: Cell cycle distribution of U373 cells by FACS; assay type: cell-based, human; conditions: U373, 48 hours
# Method: Cells in unsynchronized logarithmic growth were exposed to vehicle or drug and adherent cells and cells in the media were collected. Harvested cells were fixed with 70% cold ethanol for 20 min at −20 degrees, washed with PBS, and stained with 10 ug/ml of PI and 1 ug/ml RNAse in TBS for 30 minutes and analyzed by FACS. A, Flow cytometry profiles of U87 cells after exposures to DMSO only, compound 102 only, 5 uM; TMZ only, 25 uM; compound 102 with TMZ combination, doxorubicin only, 2.0 uM and compound 102 with doxorubicin combination. B, Flow cytometry profiles of U373 cells. Exposures as in A, and C, Schema of proposed mechanisms of compound 102 enhancement of cancer chemotherapy.
# We analyzed cell cycle patterns of U87MG and U373 cells 48 hours after exposure to TMZ or DOX alone and in combination with compound 102.
# [3] = system: human glioblastoma cell line, U373; assay: U373 growth in culture for 7 days, Compound 100 with standard cytotoxic drugs; assay type: cell-based; conditions: Compound 100 2.5 uM, cisplatin 0.1 uM, doxorubicin 0.01 uM, taxol 0.3 nM
# Method: Cells were exposed to vehicle alone (control); Compound 100 at 2.5 uM; cisplatin at 0.1 uM; doxorubicin at 0.01 uM; or taxol at 0.3 nM alone or to the combination of Compound 100 plus each of the standard agents at the same concentrations. […] The expected percent inhibition at 7 days is the product of the inhibition by each agent alone.
# Cells were exposed to vehicle alone (control); compound 100 at 2.5 μM, cisplatin at 0.1 μM; doxorubicin at 0.01 μM; or taxol at 0.3 nM alone or to the combination of compound 100 plus each of the standard agents at the same concentrations. […] The expected percent inhibition from a combination of drugs is calculated by multiplying the actual percent inhibition by each drug alone and comparing that product to the actual percent inhibition caused by the combination of the two drugs (Valeriote, 1975). The expected percent inhibition at 7 days is the product of the inhibition by each agent alone.
# TCTP = TCTP in U87 xenografts by 2-dimensional gel electrophoresis; assay type: in vivo, SCID mice; conditions: 1.5 mg/kg IP, 4 hours
# Method: SCID mice were implanted with 5×10^6 U87 cells subcutaneously. On day 26, the mice were given 1.5 mg/kg Compound 100 by IP injection. The animals were sacrificed after 4 hours treatment and the subcutaneous mass of tumor cells were removed for 2-dimensional gel electrophoretic analysis. […] In the left panel, TCTP subsequently identified by LC-MS-MS is circled and shown in an enlargement of the gel.
# SCID mice were implanted with 5 million U87 cells subcutaneously. On day 26, the mice were administered 1.5 mg/kg of compound 100 by intraperitoneal injection. The animals were sacrificed after 4 hours of treatment and the subcutaneous mass of tumor cells were removed for 2-dimensional gel electrophoretic analysis.
# human cancer cell lines = assay: Cancer cell proliferation in cell culture; assay type: cell-based
# [4] = system: DAOY medulloblastoma cells; assay: Western blot of DAOY cell lysates for TCTP, p-Plk, total Plk; assay type: cell-based, human
# Method: DAOY cells in culture were exposed to Compound 100 for 4 hours and for 24 hours, and stained for TCTP, p-Plk and total Plk on western blots.
# DAOY cells in culture were exposed to compound 100 for 4 hours and for 24 hours, and stained for TCTP, p-plk (phosphorylated plk), and total plk on western blots.
# [5] = system: DAOY medulloblastoma cells; assay: DAOY medulloblastoma s.c. xenografts in SCID mice; assay type: in vivo; conditions: treatment from day 6, by day 23
# Method: DAOY medulloblastoma cells were implanted subcutaneously into the flanks of SCID mice. On day 6, mice were divided into 3 groups, one group receiving Compound 100, one group receiving Compound 102, and one group receiving vehicle alone. The subcutaneous tumor masses were measured on day 6, day 13, day 18, and on day 23 when all animals were sacrificed. […] In this model DAOY cells, when untreated, reached their maximum growth about 2 weeks after implantation with slow regression thereafterwards.
# DAOY cells = assay: Immunofluorescence of alpha-tubulin and Plk-1 in DAOY cells; assay type: cell-based, human; conditions: 5 μM, 4 hours
# Method: DAOY cells growing in tissue culture were exposed to 5 μM Compound 100 for 4 hours. The cells were rinsed, fixed, and stained for immunofluorescent recognition of alpha-tubulin and Plk-1. Control cells at the left show in the upper left panel diffuse staining for alpha-tubulin distributed throughout the cytoplasm. […] The lower right panel, stained for Plk-1, alpha-tubulin, and DNA show the almost pure extra nuclear location of homogeneously distributed alpha-tubulin. The right panel consists of 4 elements showing the effects of exposure to Compound 100.
# [6] = system: U87 glioblastoma multiforme cells; assay: U87 s.c. xenografts in SCID mice, Compound 100; assay type: in vivo; conditions: treatment from day 7, measured to day 26
# Method: SCID mice were implanted with 5×10^6 U87 cells subcutaneously. On day 7 treatment was begun on half of the animals. The size of the subcutaneous mass of tumor cells was measured weekly until the animals were sacrificed on day 26.
smiles,measurement,setting,value
"Cn1nnc2c(C(N)=O)ncn2c1=O [TMZ, temozolomide, reference compound]",time of sacrifice (xenografts reached 1800 mm^3),U87MG xenografts,7-9 week
"C=C1[C@@H](O)[C@@H]2O[C@]3(CC[C@H](/C=C/[C@@H](C)[C@@H]4CC(C)=C[C@@]5(O[C@H](C[C@@](C)(O)C(=O)O)CC[C@H]5O)O4)O3)CC[C@H]2O[C@@H]1[C@@H](O)C[C@H](C)[C@H]1O[C@@]2(CCCCO2)CC[C@H]1C [Okadaic acid, okadaic acid, reference compound]",effects on pAkt-1 and on mutant p53,U373 cells [1],mimicked the effects of compound 102
"COc1cccc2c1C(=O)c1c(O)c3c(c(O)c1C2=O)C[C@@](O)(C(=O)CO)C[C@@H]3O[C@H]1C[C@H](N)[C@H](O)[C@H](C)O1 [doxorubicin, reference compound]",MDM2,U87MG cells,little effect
same,p53,U87MG cells,increased
same,pAkt-1,U87MG cells,decreased
same,G1 phase cells,"U373 cells [2]; compound 102 5 uM, TMZ 25 uM, doxorubicin 2.0 uM",reduced
same,G2/M phase cells,U373 cells [2]; same concentrations,reduced
same,S phase cells,U373 cells [2]; same concentrations,greatly increased
N.N.[Cl][Pt][Cl] [cisplatin],inhibition at 7 days by agent alone,[3],93.5% and 93%
CN1CCN(C(=O)C2C(C(=O)O)[C@H]3CC[C@@H]2O3)CC1 (some centres unmarked) [Compound 100],TCTP concentration in U87 xenografts,TCTP,diminution in TCTP
same,inhibition of human cancer cell lines,"human cancer cell lines; breast, colon, stomach, liver, ovary, prostate, brain, lung, leukemias, lymphomas",dose dependent inhibition
same,effect of higher doses on tumor cells,human cancer cell lines; higher doses,mitotic catastrophe and cell death
same,growth of tumor cells at non-inhibitory doses,human cancer cell lines; submicromolar to very low micromolar concentrations,slight but clear-cut stimulation
same,Plk-1 phosphorylation (western blot),[4]; 4 hours,increase
same,TCTP (western blot),[4]; 4 hours,decrease
same,TCTP (western blot),[4]; 24 hours,no TCTP is detectable
same,DAOY subcutaneous tumor mass,[5],marked regression
same,inhibition at 7 days by agent alone,[3],71%
same,alpha-tubulin distribution,DAOY cells,marked distortion of the homogeneous distribution
same,U87 subcutaneous xenograft growth,[6],Inhibition
